ChEMBL document CHEMBL1126980, “New, potent anthelmintic and acaricidal agents: 4-deoxy-4-thio-substituted avermectin derivatives” (Bioorg Med Chem Lett, 1993)
Values after ≈ are worked out from the molar mass of the structure shown.

Legend:
Ovis aries [1] = experiment: Tested for the anthelmintic efficacy against Oesphagostomum columbianum at 0.1 mg/kg; range is 91-100%; assay type: functional
Caenorhabditis elegans = experiment: Tested in vitro for the biological efficacy using Caenorhabditis elegans binding assay; assay type: functional, organism-based
Artemia salina = experiment: Tested in vitro for the biological efficacy using Artemia salina (brine shrimp) immobilization assay; assay type: functional
[2] = tested on: Trichostrongylus colubriformis; experiment: Tested in vivo for the biological efficacy using Trichostrongylus colubriformis gerbil assay; assay type: functional
Tetranychus urticae = experiment: Tested for acaricidal efficacy using a Tetranychus urticae (two-spotted spider mite, TSSM) contact assay; assay type: functional; parameters: concentration or dose not given beside the values
Ovis aries [3] = experiment: Tested for the anthelmintic efficacy against Trichostrongylus colubriformis at 0.1 mg/kg; range is 91-100%; assay type: functional
Ovis aries [4] = experiment: Tested for the anthelmintic efficacy against Ostertagia circumcincta at 0.1 mg/kg; range is 91-100%; assay type: functional
Ovis aries [5] = experiment: Tested for the anthelmintic efficacy against Trichostrongylus axei at 0.1 mg/kg; range is 91-100%; assay type: functional
Ovis aries [6] = experiment: Tested for anthelmintic efficacy against Haemonchus contortus at 0.1 mg/kg; range is 91-100%; assay type: functional
Ovis aries [7] = experiment: Tested for the anthelmintic efficacy against Cooperia curticei at 0.1 mg/kg; range is 91-100%; assay type: functional
Ovis aries [8] = experiment: Tested for the anthelmintic efficacy against Trichostrongylus axei at 0.1 mg/kg; range is 76-90%; assay type: functional
Ovis aries [9] = experiment: Tested for the anthelmintic efficacy against Cooperia curticei at 0.1 mg/kg; assay type: functional
Ovis aries [10] = experiment: Tested for the anthelmintic efficacy against Trichostrongylus colubriformis at 0.1 mg/kg; range is 51-75%; assay type: functional
Ovis aries [11] = experiment: Tested for the anthelmintic efficacy against Trichostrongylus colubriformis at 0.1 mg/kg; range is 76-90%; assay type: functional
Ovis aries [12] = experiment: Tested for the anthelmintic efficacy against Ostertagia circumcincta at 0.1 mg/kg; range is 76-90%; assay type: functional

CCC(C)[C@H]1O[C@]2(C=C[C@@H]1C)C[C@@H]1C[C@@H](C/C=C(\C)[C@@H](O[C@H]3C[C@H](OC)[C@@H](O[C@H]4C[C@H](OC)[C@H](S(C)(=O)=O)[C@H](C)O4)[C@H](C)O3)[C@@H](C)/C=C/C=C3\CO[C@@H]4[C@H](O)C(C)=C[C@@H](C(=O)O1)[C@]34O)O2 (stereo not given in full)
Reduction (Ovis aries [1]): 91%
IC50 (Caenorhabditis elegans): 0.132 ng/mL (≈ 0.141 nM)
IC100 (Artemia salina): 430 ng/mL
ED85 [2]: 0.063 mg/kg
Mortality (Tetranychus urticae): 45%
Reduction (Ovis aries [3]): 91%
Reduction (Ovis aries [4]): 91%
Reduction (Ovis aries [5]): 91%
Reduction (Ovis aries [6]): 91%
Reduction (Ovis aries [7]): 91%

CCC(C)[C@H]1O[C@]2(C=C[C@@H]1C)C[C@@H]1C[C@@H](C/C=C(\C)[C@@H](O[C@H]3C[C@H](OC)[C@@H](O[C@H]4C[C@H](OC)[C@H]([S+](C)[O-])[C@H](C)O4)[C@H](C)O3)[C@@H](C)/C=C/C=C3\CO[C@@H]4[C@H](O)C(C)=C[C@@H](C(=O)O1)[C@]34O)O2 (stereo not given in full)
Reduction (Ovis aries [1]): 91%
IC50 (Caenorhabditis elegans): 0.262 ng/mL (≈ 0.285 nM)
IC100 (Artemia salina): 870 ng/mL
ED85 [2]: 0.031 mg/kg
Mortality (Tetranychus urticae): 64%
Reduction (Ovis aries [3]): 91%
Reduction (Ovis aries [4]): 91%
Reduction (Ovis aries [5]): 91%
Reduction (Ovis aries [6]): 91%
Reduction (Ovis aries [7]): 91%

CCC(C)[C@H]1O[C@]2(C=C[C@@H]1C)C[C@@H]1C[C@@H](C/C=C(\C)[C@@H](O[C@H]3C[C@H](OC)[C@@H](O[C@H]4C[C@H](OC)[C@H](SCCOC(C)=O)[C@H](C)O4)[C@H](C)O3)[C@@H](C)/C=C/C=C3\CO[C@@H]4[C@H](O)C(C)=C[C@@H](C(=O)O1)[C@]34O)O2 (stereo not given in full)
Reduction (Ovis aries [1]): 91%
IC50 (Caenorhabditis elegans): 0.525 ng/mL (≈ 0.538 nM)
IC100 (Artemia salina): 1730 ng/mL
ED85 [2]: 0.125 mg/kg
Mortality (Tetranychus urticae): 68%
Reduction (Ovis aries [8]): 76%
Reduction (Ovis aries [3]): 91%
Reduction (Ovis aries [4]): 91%
Reduction (Ovis aries [6]): 91%
Reduction (Ovis aries [9]): <50%

CCC(C)[C@H]1O[C@]2(C=C[C@@H]1C)C[C@@H]1C[C@@H](C/C=C(\C)[C@@H](O[C@H]3C[C@H](OC)[C@@H](O[C@H]4C[C@H](OC)[C@H](SCCNC(C)=O)[C@H](C)O4)[C@H](C)O3)[C@@H](C)/C=C/C=C3\CO[C@@H]4[C@H](O)C(C)=C[C@@H](C(=O)O1)[C@]34O)O2 (stereo not given in full)
Reduction (Ovis aries [1]): 91%
IC50 (Caenorhabditis elegans): 0.127 ng/mL (≈ 0.13 nM)
IC100 (Artemia salina): 870 ng/mL
ED85 [2]: 0.031 mg/kg
Mortality (Tetranychus urticae): 29%
Reduction (Ovis aries [4]): 91%
Reduction (Ovis aries [5]): 91%
Reduction (Ovis aries [6]): 91%
Reduction (Ovis aries [10]): 51%
Reduction (Ovis aries [7]): 91%

CCC(C)[C@H]1O[C@]2(CC[C@@H]1C)C[C@@H]1C[C@@H](C/C=C(\C)[C@@H](O[C@H]3C[C@H](OC)[C@@H](O[C@H]4C[C@H](OC)[C@H](S(=O)(=O)CCO)[C@H](C)O4)[C@H](C)O3)[C@@H](C)/C=C/C=C3\CO[C@@H]4[C@H](O)C(C)=C[C@@H](C(=O)O1)[C@]34O)O2 (stereo not given in full)
Reduction (Ovis aries [1]): 91%
IC50 (Caenorhabditis elegans): 0.119 ng/mL (≈ 0.123 nM)
IC100 (Artemia salina): 650 ng/mL
ED85 [2]: 0.125 mg/kg
Mortality (Tetranychus urticae): 48%
Reduction (Ovis aries [3]): 91%
Reduction (Ovis aries [4]): 91%
Reduction (Ovis aries [5]): 91%
Reduction (Ovis aries [6]): 91%
Reduction (Ovis aries [7]): 91%

CCC(C)[C@H]1O[C@]2(C=C[C@@H]1C)C[C@@H]1C[C@@H](C/C=C(\C)[C@@H](O[C@H]3C[C@H](OC)[C@@H](O[C@H]4C[C@H](OC)[C@@H](S(=O)(=O)CC)[C@H](C)O4)[C@H](C)O3)[C@@H](C)/C=C/C=C3\CO[C@@H]4[C@H](O)C(C)=C[C@@H](C(=O)O1)[C@]34O)O2 (stereo not given in full)
IC50 (Caenorhabditis elegans): 0.123 ng/mL (≈ 0.13 nM)
IC100 (Artemia salina): 870 ng/mL
ED85 [2]: 0.063 mg/kg
Mortality (Tetranychus urticae): 64%

CCC(C)[C@H]1O[C@]2(C=C[C@@H]1C)C[C@@H]1C[C@@H](C/C=C(\C)[C@@H](O[C@H]3C[C@H](OC)[C@H](SCCNC(C)=O)[C@H](C)O3)[C@@H](C)/C=C/C=C3\CO[C@@H]4[C@H](O)C(C)=C[C@@H](C(=O)O1)[C@]34O)O2 (stereo not given in full)
Reduction (Ovis aries [1]): 91%
IC100 (Artemia salina): 430 ng/mL
ED85 [2]: 0.063 mg/kg
Reduction (Ovis aries [3]): 91%
Reduction (Ovis aries [4]): 91%
Reduction (Ovis aries [5]): 91%
Reduction (Ovis aries [6]): 91%
Reduction (Ovis aries [9]): <50%

CCC(C)[C@H]1O[C@]2(C=C[C@@H]1C)C[C@@H]1C[C@@H](C/C=C(\C)[C@@H](O[C@H]3C[C@H](OC)[C@@H](O[C@H]4C[C@H](OC)[C@H](SCCO)[C@H](C)O4)[C@H](C)O3)[C@@H](C)/C=C/C=C3\CO[C@@H]4[C@H](O)C(C)=C[C@@H](C(=O)O1)[C@]34O)O2 (stereo not given in full)
Reduction (Ovis aries [11]): 76%
Reduction (Ovis aries [1]): 91%
IC50 (Caenorhabditis elegans): 0.784 ng/mL (≈ 0.84 nM)
IC100 (Artemia salina): 650 ng/mL
ED85 [2]: 0.063 mg/kg
Mortality (Tetranychus urticae): 55%
Reduction (Ovis aries [4]): 91%
Reduction (Ovis aries [5]): 91%
Reduction (Ovis aries [6]): 91%
Reduction (Ovis aries [9]): <50%

CCC(C)[C@H]1O[C@]2(C=C[C@@H]1C)C[C@@H]1C[C@@H](C/C=C(\C)[C@@H](O[C@H]3C[C@H](OC)[C@@H](O[C@H]4C[C@H](OC)[C@H](S(=O)(=O)CC)[C@H](C)O4)[C@H](C)O3)[C@@H](C)/C=C/C=C3\CO[C@@H]4[C@H](O)C(C)=C[C@@H](C(=O)O1)[C@]34O)O2 (stereo not given in full)
IC50 (Caenorhabditis elegans): 0.128 ng/mL (≈ 0.135 nM)
IC100 (Artemia salina): 650 ng/mL
ED85 [2]: 0.031 mg/kg
Mortality (Tetranychus urticae): 68%

CCC(C)[C@H]1O[C@]2(C=C[C@@H]1C)C[C@@H]1C[C@@H](C/C=C(\C)[C@@H](O[C@H]3C[C@H](OC)[C@@H](O[C@H]4C[C@H](OC)[C@H](SCC(C)O)[C@H](C)O4)[C@H](C)O3)[C@@H](C)/C=C/C=C3\CO[C@@H]4[C@H](O)C(C)=C[C@@H](C(=O)O1)[C@]34O)O2 (stereo not given in full)
IC50 (Caenorhabditis elegans): 0.216 ng/mL (≈ 0.228 nM)
IC100 (Artemia salina): 870 ng/mL
ED85 [2]: 0.063 mg/kg
Mortality (Tetranychus urticae): 89%

CCC(C)[C@H]1O[C@]2(C=C[C@@H]1C)C[C@@H]1C[C@@H](C/C=C(\C)[C@@H](O[C@H]3C[C@H](OC)[C@@H](O[C@H]4C[C@H](OC)[C@@H]([S+](C)[O-])[C@H](C)O4)[C@H](C)O3)[C@@H](C)/C=C/C=C3\CO[C@@H]4[C@H](O)C(C)=C[C@@H](C(=O)O1)[C@]34O)O2 (stereo not given in full)
Reduction (Ovis aries [1]): 91%
IC100 (Artemia salina): 430 ng/mL
ED85 [2]: 0.016 mg/kg
Reduction (Ovis aries [3]): 91%
Reduction (Ovis aries [4]): 91%
Reduction (Ovis aries [5]): 91%
Reduction (Ovis aries [6]): 91%
Reduction (Ovis aries [7]): 91%

CCC(C)[C@H]1O[C@]2(C=C[C@@H]1C)C[C@@H]1C[C@@H](C/C=C(\C)[C@@H](O[C@H]3C[C@H](OC)[C@@H](O[C@H]4C[C@H](OC)[C@@H](O)[C@H](C)O4)[C@H](C)O3)[C@@H](C)/C=C/C=C3\CO[C@@H]4[C@H](O)C(C)=C[C@@H](C(=O)O1)[C@]34O)O2 (stereo not given in full) [AVERMECTIN]
Reduction (Ovis aries [1]): 91%
IC50 (Caenorhabditis elegans): 0.073 ng/mL (≈ 0.0836 nM)
IC100 (Artemia salina): 400 ng/mL
ED85 [2]: 0.031 mg/kg
Mortality (Tetranychus urticae): 95%
Reduction (Ovis aries [3]): 91%
Reduction (Ovis aries [4]): 91%
Reduction (Ovis aries [5]): 91%
Reduction (Ovis aries [6]): 91%
Reduction (Ovis aries [7]): 91%

CCC(C)[C@H]1O[C@]2(C=C[C@@H]1C)C[C@@H]1C[C@@H](C/C=C(\C)[C@@H](O[C@H]3C[C@H](OC)[C@@H](O[C@H]4C[C@H](OC)[C@@H](S(C)(=O)=O)[C@H](C)O4)[C@H](C)O3)[C@@H](C)/C=C/C=C3\CO[C@@H]4[C@H](O)C(C)=C[C@@H](C(=O)O1)[C@]34O)O2 (stereo not given in full)
Reduction (Ovis aries [1]): 91%
IC50 (Caenorhabditis elegans): 0.098 ng/mL (≈ 0.105 nM)
IC100 (Artemia salina): 430 ng/mL
ED85 [2]: 0.125 mg/kg
Reduction (Ovis aries [12]): 76%
Mortality (Tetranychus urticae): 85%
Reduction (Ovis aries [3]): 91%
Reduction (Ovis aries [5]): 91%
Reduction (Ovis aries [6]): 91%
Reduction (Ovis aries [7]): 91%

CCC(C)[C@H]1O[C@]2(CC[C@@H]1C)C[C@@H]1C[C@@H](C/C=C(\C)[C@@H](O[C@H]3C[C@H](OC)[C@@H](O[C@H]4C[C@H](OC)[C@H]([S+](C)[O-])[C@H](C)O4)[C@H](C)O3)[C@@H](C)/C=C/C=C3\CO[C@@H]4[C@H](O)C(C)=C[C@@H](C(=O)O1)[C@]34O)O2 (stereo not given in full)
IC50 (Caenorhabditis elegans): 0.108 ng/mL (≈ 0.117 nM)
IC100 (Artemia salina): 870 ng/mL
ED85 [2]: 0.063 mg/kg
Mortality (Tetranychus urticae): 77%

CCC(C)[C@H]1O[C@]2(CC[C@@H]1C)C[C@@H]1C[C@@H](C/C=C(\C)[C@@H](O[C@H]3C[C@H](OC)[C@@H](O[C@H]4C[C@H](OC)[C@H](S(C)(=O)=O)[C@H](C)O4)[C@H](C)O3)[C@@H](C)/C=C/C=C3\CO[C@@H]4[C@H](O)C(C)=C[C@@H](C(=O)O1)[C@]34O)O2 (stereo not given in full)
IC50 (Caenorhabditis elegans): 0.084 ng/mL (≈ 0.0896 nM)
IC100 (Artemia salina): 870 ng/mL
ED85 [2]: 0.125 mg/kg
Mortality (Tetranychus urticae): 64%

CCC(C)[C@H]1O[C@]2(C=C[C@@H]1C)C[C@@H]1C[C@@H](C/C=C(\C)[C@@H](O[C@H]3C[C@H](OC)[C@@H](O[C@H]4C[C@H](OC)[C@@H](SCC(C)O)[C@H](C)O4)[C@H](C)O3)[C@@H](C)/C=C/C=C3\CO[C@@H]4[C@H](O)C(C)=C[C@@H](C(=O)O1)[C@]34O)O2 (stereo not given in full)
IC50 (Caenorhabditis elegans): 0.153 ng/mL (≈ 0.162 nM)
IC100 (Artemia salina): 870 ng/mL
ED85 [2]: 0.125 mg/kg
Mortality (Tetranychus urticae): 88%
